Results reported in US6525021B1 (priority 1998, dated 2003).
Non-standard residues stand in square brackets, D forms with d. Residues, ends and D or L forms follow the SMILES beside them. *: point of attachment. X1 = CC(=O)N[C@@H]1[C@@H](O[C@@H]2O[C@H](CO)[C@H](O)[C@H](O)[C@H]2O)[C@@H](O)[C@@H](CO)O[C@@H]1*; pGlu = O=C1CC[C@@H](C(=O)O)N1

What was measured:
[1] = mouse, in vivo
[2] = mouse, in vivo; remark: listed apart in the source

SMILES | motor impairment on rotorod compared to vehicle [1] | antinociceptive doses relative to doses for locomotor impairment or hypothermia [2] | doses causing long-lasting motor impairment, as multiple of ED50 [2] [fold] | duration of motor impairment [2] [h] | time of maximal locomotor impairment post i.t. injection [2] [min] | TD50, rotorod test of minimal motor impairment [2] [pmol] | time after which motor impairment resolved [2] [h]
CC[C@H](C)[C@H](NC(=O)[C@H](Cc1ccc(O)cc1)NC(=O)[C@@H]1CCCN1C(=O)[C@H](CCCCN)NC(=O)[C@H](CCCCN)NC(=O)[C@@H](NC(=O)[C@H](C)NC(=O)[C@H](CC(N)=O)NC(=O)[C@H](CO)NC(=O)CNC(=O)CNC(=O)[C@H](CCC(=O)O)NC(=O)[C@H](CCC(=O)O)NC(=O)[C@H](CO)NC(=O)[C@@H]1CCC(=O)N1)[C@@H](C)O)C(=O)N[C@@H](CC(C)C)C(=O)O [Thr10-contulakin-G] (HELM PEPTIDE1{[Glp].S.E.E.G.G.S.N.A.T.K.K.P.Y.I.L}$$$$V2.0) | no motor impairment | approximately equal doses | ≥ 10 | 2 to 3 | 15 |  | 
CC[C@H](C)[C@H](NC(=O)[C@H](Cc1ccc(O)cc1)NC(=O)[C@@H]1CCCN1C(=O)[C@H](CCCCN)NC(=O)[C@H](CCCCN)NC(=O)[C@@H](NC(=O)[C@H](C)NC(=O)[C@H](CC(N)=O)NC(=O)[C@H](CO)NC(=O)CNC(=O)CNC(=O)[C@H](CCC(=O)O)NC(=O)[C@H](CCC(=O)O)NC(=O)[C@H](CO)NC(=O)[C@@H]1CCC(=O)N1)[C@@H](C)O[C@H]1O[C@H](CO)[C@H](O)[C@H](O[C@@H]2O[C@H](CO)[C@H](O)[C@H](O)[C@H]2O)[C@H]1NC(C)=O)C(=O)N[C@@H](CC(C)C)C(=O)O [contulakin-G] ([pGlu]SEEGGSNAT(X1)KKPYIL-OH) |  | 10-100 fold | ≥ 100 |  | 15 | 10 to 20 | 5
